How the values were obtained:
DU145 = assay: Sulforhodamine B (SRB) growth inhibition assay; format: cell-based, Human; conditions: for ratio vs flox (GI50) DU145: GI50 of conjugate vs floxuridine; for GI50: SRB assay, cells exposed for 24 h, read-out: GI50 values (μM) DU145
Description: (§1) The aim was to determine the GI50 values for PEG-floxuridine conjugates against a panel of cell lines, and based on previous data from Xenograft studies. […] The test articles were solubilized in dimethylsulfoxide and were tested at four different molar (M) concentrations; 10^−4, 10^−5, 10^−6, M. GI50 (the concentration needed to reduce the growth of treated cells to half that of untreated control cells) was calculated for each condition ([(Ti−Tz)/(C-Tz)]×100=50, where Ti, Tz, and C refer to absorbance values obtained from each tested concentration, time zero, and control treatment, respectively).
as §1, with “The objective” for “The aim”, “the IC50” for “the GI50”, “for PEG-gemcitabine” for “for PEG-floxuridine”, “in dimethyl sulfoxide” for “in dimethylsulfoxide”, “10^−6, 10^−7” for “10^−6,”, “condition ([(Ti−Tz)/(C−Tz)]×100=50,” for “condition ([(Ti−Tz)/(C-Tz)]×100=50,”

Hop62 = assay: Sulforhodamine B (SRB) growth inhibition assay; format: cell-based, Human; conditions: for ratio vs flox (GI50) Hop62: GI50 of conjugate vs floxuridine; for GI50: SRB assay, cells exposed for 24 h, read-out: GI50 values (μM) Hop62
Description: (§2) In Vitro Screening of PEG-Gemcitabine Monophosphate in Selected Human Cancer Cell Lines
as §1
as §1, with “The objective” for “The aim”, “the IC50” for “the GI50”, “for PEG-gemcitabine” for “for PEG-floxuridine”, “in dimethyl sulfoxide” for “in dimethylsulfoxide”, “10^−6, 10^−7” for “10^−6,”, “condition ([(Ti−Tz)/(C−Tz)]×100=50,” for “condition ([(Ti−Tz)/(C-Tz)]×100=50,”

MCF7 = assay: Sulforhodamine B (SRB) growth inhibition assay; format: cell-based, Human; conditions: for ratio vs flox (GI50) MCF7: GI50 of conjugate vs floxuridine; for GI50: SRB assay, cells exposed for 24 h, read-out: GI50 values (μM) MCF7
Description: as §2, §1
as §1, with “The objective” for “The aim”, “the IC50” for “the GI50”, “for PEG-gemcitabine” for “for PEG-floxuridine”, “in dimethyl sulfoxide” for “in dimethylsulfoxide”, “10^−6, 10^−7” for “10^−6,”, “condition ([(Ti−Tz)/(C−Tz)]×100=50,” for “condition ([(Ti−Tz)/(C-Tz)]×100=50,”

A2780 = assay: Sulforhodamine B (SRB) growth inhibition assay; format: cell-based, Human; conditions: for ratio vs flox (GI50) A2780: GI50 of conjugate vs floxuridine; for GI50: SRB assay, cells exposed for 24 h, read-out: GI50 values (μM) A2780
Description: as §2, §1
as §1, with “The objective” for “The aim”, “the IC50” for “the GI50”, “for PEG-gemcitabine” for “for PEG-floxuridine”, “in dimethyl sulfoxide” for “in dimethylsulfoxide”, “10^−6, 10^−7” for “10^−6,”, “condition ([(Ti−Tz)/(C−Tz)]×100=50,” for “condition ([(Ti−Tz)/(C-Tz)]×100=50,”

HT29 = assay: Sulforhodamine B (SRB) growth inhibition assay; format: cell-based, Human; conditions: for ratio vs flox (GI50) HT29: GI50 of conjugate vs floxuridine; for GI50: SRB assay, cells exposed for 24 h, read-out: GI50 values (μM) HT29
Description: as §2, §1
as §1, with “The objective” for “The aim”, “the IC50” for “the GI50”, “for PEG-gemcitabine” for “for PEG-floxuridine”, “in dimethyl sulfoxide” for “in dimethylsulfoxide”, “10^−6, 10^−7” for “10^−6,”, “condition ([(Ti−Tz)/(C−Tz)]×100=50,” for “condition ([(Ti−Tz)/(C-Tz)]×100=50,”

[1] = Bi-directional permeability in Caco-2 cells; conditions: human
Description: (§3) Bi-Directional Permeability of PEG-Floxuridine Conjugates in Caco-2 and MDCK Cells

in vitro [2] = conditions: human, Caco-2
Description: as §3

in vitro [3] = conditions: dog, MDCK
Description: as §3

[4] = Bi-directional permeability in MDCK cells; conditions: dog
Description: as §3

Row | SMILES | ratio vs flox (GI50) DU145 (DU145) | GI50 (DU145) [µM] | ratio vs flox (GI50) Hop62 (Hop62) | GI50 (Hop62) [µM] | ratio vs flox (GI50) MCF7 (MCF7) | GI50 (MCF7) [µM] | ratio vs flox (GI50) A2780 (A2780) | GI50 (A2780) [µM] | ratio vs flox (GI50) HT29 (HT29) | GI50 (HT29) [µM] | also measured
1 | COCCOCCOCCOCCOCCOCCOCCOP(=O)(OCCOCCOCCOCCOCCOCCOCCOC)OC[C@H]1O[C@@H](n2cc(F)c(=O)[nH]c2=O)C[C@@H]1O [Floxuridine Di (mPEG7), 5′-floxuridine di-methoxy hepta(ethylene glycol) phosphate] | 4 | > 100 | 417 | > 100 | 667 | > 100 | 1538 | > 100 | 4 | > 100 | 
2 | CCCCCOC(=O)Nc1nc(=O)n([C@@H]2O[C@H](C)[C@@H](O)[C@H]2O)cc1F [Capecitabine] |  |  |  |  |  |  |  |  |  |  | recovery ([1]; Caco-2, percent recovery A -> B): 110%; recovery ([1]; Caco-2, percent recovery B -> A): 99%; Papp A→B (in vitro [2]): 2.22 ×10⁻⁶ cm/s; Papp B→A (in vitro [2]): 8.71 ×10⁻⁶ cm/s; efflux ratio (in vitro [2]): 3.9; Significant efflux (MDCK cells): No; permeability through MDCK monolayers (in words) (MDCK cells): relatively poor permeability; Papp B-A/Papp A-B (MDCK cells; dog): 0.9; Papp A→B (in vitro [3]): 0.16 ×10⁻⁶ cm/s; Papp B→A (in vitro [3]): 0.14 ×10⁻⁶ cm/s; efflux ratio (in vitro [3]): 0.9; Absorption potential (Caco-2 cells): High; Significant efflux (Caco-2 cells): Yes; permeability across Caco-2 monolayers (in words) (Caco-2 cells): high permeability; Papp B-A/Papp A-B (Caco-2 cells; human): 3.9; recovery ([4]; percent recovery A -> B): 104%; recovery ([4]; percent recovery B -> A): 99%
3 | COCCOCCOCCOP(=O)(OCCOCCOCCOC)OC[C@H]1O[C@@H](n2cc(F)c(=O)[nH]c2=O)C[C@@H]1O [Floxuridine Di (mPEG3), 5′-floxuridine di-methoxy tri(ethylene glycol) phosphate] | 4 | > 100 | 417 | > 100 | 667 | > 100 | 1538 | > 100 | 4 | > 100 | 
